# Patent US11420966B2 (ACLARIS THERAPEUTICS, INC., priority 2019, dated 2022)
# Legend:
# [1] = tested on: IFNγ stimulated STAT1 phosphorylation on Tyr701 (JAK1/2); assay: JAK1/2 cellular target modulation: IFNγ stimulated phospho-STAT1 in PBMC; format: cell-based; settings: human PBMC, IFNγ 10 ng/ml; read-out: Infγ-STAT1 IC50
# Outline: (§1)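 Thawed human PBMC (200,000/well, RPMI/10% FBS) were preincubated with compound for 1 h at 37 °C, added from 10× stocks in 1% DMSO. Stimulation and read-out: IL-2 25 ng/ml, 5 min, pSTAT5 by MSD; IL-12 1.7 ng/ml, 25 min, pSTAT4 by MSD; IFNγ 10 ng/ml, 10 min, pSTAT1 by sandwich ELISA.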
# [2] = tested on: IL-12 stimulated STAT4 phosphorylation on Tyr693 (JAK2/TYK2); assay: JAK2/TYK2 cellular target modulation: IL-12 stimulated phospho-STAT4 in PBMC; format: cell-based; settings: human PBMC, IL-12 1.7 ng/ml; read-out: IL12-STAT4 IC50
# Outline: as §1
# Tyk-2 = Tyk-2 (Homo sapiens (Human), UniProt P29597); assay: Tyk-2 enzyme activity assay (Thermo Fisher SelectScreen, Z-lyte); format: biochemical; settings: read-out: Tyk-2 Inhibition IC50
# Chain of Tyk-2 (P29597 whole entry): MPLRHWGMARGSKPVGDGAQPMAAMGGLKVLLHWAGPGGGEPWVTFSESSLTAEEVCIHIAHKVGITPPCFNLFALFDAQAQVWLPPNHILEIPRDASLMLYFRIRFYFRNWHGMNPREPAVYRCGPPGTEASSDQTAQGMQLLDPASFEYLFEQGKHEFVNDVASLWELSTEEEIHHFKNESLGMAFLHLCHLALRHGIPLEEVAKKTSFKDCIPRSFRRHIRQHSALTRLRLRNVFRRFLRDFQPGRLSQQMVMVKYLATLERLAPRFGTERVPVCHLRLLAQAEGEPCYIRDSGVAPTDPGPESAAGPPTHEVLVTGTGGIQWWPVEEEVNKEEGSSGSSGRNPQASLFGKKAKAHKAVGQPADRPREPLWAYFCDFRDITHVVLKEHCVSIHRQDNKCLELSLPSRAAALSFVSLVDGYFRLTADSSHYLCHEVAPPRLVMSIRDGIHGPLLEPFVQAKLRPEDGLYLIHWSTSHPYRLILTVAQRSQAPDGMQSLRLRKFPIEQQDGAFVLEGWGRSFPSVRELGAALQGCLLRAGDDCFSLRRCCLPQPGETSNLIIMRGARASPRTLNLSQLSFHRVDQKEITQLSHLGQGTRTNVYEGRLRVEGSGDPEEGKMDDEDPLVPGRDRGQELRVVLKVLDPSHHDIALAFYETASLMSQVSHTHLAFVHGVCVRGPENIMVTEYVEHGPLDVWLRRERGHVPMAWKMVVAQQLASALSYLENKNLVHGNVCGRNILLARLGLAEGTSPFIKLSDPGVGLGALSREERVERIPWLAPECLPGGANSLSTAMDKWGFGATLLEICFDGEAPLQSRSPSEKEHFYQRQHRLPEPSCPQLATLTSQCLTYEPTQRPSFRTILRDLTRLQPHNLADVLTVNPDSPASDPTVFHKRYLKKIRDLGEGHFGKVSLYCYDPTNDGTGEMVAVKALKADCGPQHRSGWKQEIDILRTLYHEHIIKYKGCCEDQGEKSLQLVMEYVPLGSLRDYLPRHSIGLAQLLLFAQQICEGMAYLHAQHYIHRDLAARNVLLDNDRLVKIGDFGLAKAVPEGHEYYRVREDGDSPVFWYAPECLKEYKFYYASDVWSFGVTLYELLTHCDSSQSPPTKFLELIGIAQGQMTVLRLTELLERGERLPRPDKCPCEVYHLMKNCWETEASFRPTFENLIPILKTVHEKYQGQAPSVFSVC
# Outline: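 Z-lyte FRET assay: 3.75–15 ng TYK2 with […] Tyr 03 peptide in HEPES pH 7.0, MgCl2, EGTA, BRIJ-35; 1 h reaction, then development reagent. 11-point dose-response, 2% DMSO; IC50 via 4-parameter fit of emission ratio, background without enzyme.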
# JAK2 = JAK2 (Homo sapiens (Human), UniProt O60674); assay: JAK2 enzyme activity assay (Thermo Fisher SelectScreen, Z-lyte); format: biochemical; settings: read-out: JAK2 Inhibition IC50
# Chain of JAK2 (O60674 whole entry): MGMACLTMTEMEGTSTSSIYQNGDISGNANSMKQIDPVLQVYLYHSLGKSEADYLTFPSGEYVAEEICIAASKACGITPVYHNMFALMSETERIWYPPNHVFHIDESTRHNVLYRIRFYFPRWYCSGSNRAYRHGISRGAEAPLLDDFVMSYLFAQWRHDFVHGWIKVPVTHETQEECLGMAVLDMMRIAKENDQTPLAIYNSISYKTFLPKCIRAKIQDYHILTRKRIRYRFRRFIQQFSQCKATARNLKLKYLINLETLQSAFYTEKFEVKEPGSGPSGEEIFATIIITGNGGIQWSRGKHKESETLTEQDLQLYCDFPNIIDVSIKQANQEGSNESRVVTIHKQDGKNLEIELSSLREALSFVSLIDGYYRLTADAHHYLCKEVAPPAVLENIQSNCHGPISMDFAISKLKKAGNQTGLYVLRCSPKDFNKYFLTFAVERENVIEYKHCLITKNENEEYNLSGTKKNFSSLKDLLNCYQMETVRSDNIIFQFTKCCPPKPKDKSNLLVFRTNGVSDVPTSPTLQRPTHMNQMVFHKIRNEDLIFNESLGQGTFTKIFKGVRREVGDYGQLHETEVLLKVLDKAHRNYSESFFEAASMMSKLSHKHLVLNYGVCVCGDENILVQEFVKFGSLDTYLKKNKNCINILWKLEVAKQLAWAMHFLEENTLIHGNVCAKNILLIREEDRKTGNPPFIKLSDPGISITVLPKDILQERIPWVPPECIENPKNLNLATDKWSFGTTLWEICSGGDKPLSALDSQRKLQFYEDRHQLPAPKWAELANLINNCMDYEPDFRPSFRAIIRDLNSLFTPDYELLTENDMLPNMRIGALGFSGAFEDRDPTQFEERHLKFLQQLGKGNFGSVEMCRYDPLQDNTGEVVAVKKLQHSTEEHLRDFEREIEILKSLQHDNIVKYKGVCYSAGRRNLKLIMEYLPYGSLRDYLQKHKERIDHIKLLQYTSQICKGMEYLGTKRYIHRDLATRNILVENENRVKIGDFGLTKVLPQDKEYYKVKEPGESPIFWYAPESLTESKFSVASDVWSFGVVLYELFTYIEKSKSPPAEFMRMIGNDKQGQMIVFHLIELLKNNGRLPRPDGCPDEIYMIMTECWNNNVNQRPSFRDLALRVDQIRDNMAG
# Outline: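 IC50 values derive from a 4-parameter logistic fit of emission ratio across an 11-point series ([…] to 0.34 nM, 2% DMSO vehicle). Reaction: 1 h, 0.12-0.5 ng JAK2, […] Tyr 06 in HEPES pH 7.5 buffer with MgCl2, EGTA, BRIJ-35, read by Z-lyte development.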
# JAK3 (a.a. 781-1124) = JAK3 (a.a. 781-1124) (Homo sapiens (Human), UniProt P52333); assay: JAK3 enzyme activity assay (SRCtide phosphorylation, Caliper); format: biochemical; settings: 1 uM ATP; read-out: JAK3 Inhibition IC50
# Chain of JAK3 (a.a. 781-1124) (P52333 781-1124): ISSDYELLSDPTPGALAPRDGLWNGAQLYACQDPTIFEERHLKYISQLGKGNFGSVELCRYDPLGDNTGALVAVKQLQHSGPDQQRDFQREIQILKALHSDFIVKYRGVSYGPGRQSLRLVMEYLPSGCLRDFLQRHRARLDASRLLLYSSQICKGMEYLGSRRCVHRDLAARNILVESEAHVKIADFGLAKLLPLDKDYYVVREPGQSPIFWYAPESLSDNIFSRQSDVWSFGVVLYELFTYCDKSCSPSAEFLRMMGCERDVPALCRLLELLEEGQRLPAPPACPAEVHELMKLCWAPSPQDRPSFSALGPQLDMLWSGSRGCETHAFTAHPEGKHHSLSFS
structure (smiles),measurement,setting,value
"CNC(=O)c1coc(-c2cnc3[nH]ccc3c2N[C@@H]2C[C@H](C)CN(C(=O)CC#N)C2)n1 [Example 31, 2-(4-(((3R,5S)-1-(2-cyanoacetyl)-5-methylpiperidin-3-yl)amino)-1H-pyrrolo[2,3-b]pyridin-5-yl)-N-methyloxazole-4-carboxamide]",IC50,[1],≤ 100 nM
same,IC50,[2],> 1000 nM
same,IC50,Tyk-2,≤ 10 nM
same,IC50,JAK2,≤ 10 nM
same,IC50,JAK3 (a.a. 781-1124),≤ 10 nM
